# From article PMC5642145, “Impact of the structures of macrocyclic Michael acceptors on covalent proteasome inhibition” (Chemical Science, 2017)
# Where two headings read alike, the source gives them in different places.
# Key:
# [1] = molecular target: T1, β5 subunit of the human constitutive 20S proteasome (Homo sapiens, UniProt P20618+P28074); experiment: In vitro β5 proteasome inhibitory activity and kinetic constants (Suc-LLVY-AMC, chymotrypsin-like activity); format: biochemical; conditions: for K′i (apparent β5 subunit inhibitory activity): human erythrocyte 20S proteasome, chymotrypsin-like activity, 37 °C; for kinact/KI: read-out: k assoc (k2/Ki)
# T1 construct: human erythrocyte 20S; purchased R&D Systems, Inc; host or cells: human erythrocytes (native, purified from tissue)
# Text: First, the effect of modifying the macrocycle was investigated for 1–3 by analyzing the inhibitory activity of the β5 subunit of the human constitutive 20S proteasome. […] The k 2/K i ratio represents the second-order rate constant for the reaction of the inhibitor with the target (k assoc), and it indicates the overall inhibitory potency of the inhibitor.
# 4) Evaluation of in vitro β5 proteasome inhibitory activity and determination of kinetic […]
# In vitro proteasome inhibitory activity was measured on 96-well microtiter plates using human erythrocyte 20S proteasome (R&D Systems, Inc.) with the AK-740 Assay Kit for Drug Discovery (Biomol). Reactions were performed at 37 °C in 100 μ L volu mes containing a serial dilution of test samples, 2 μ g/mL 20S proteasome, and 100 μM Suc-L LV Y -AMC for assaying chymotrypsin-like activity, according to the manufacture’s instructions.
# Fluorescence was monitored with an infinite M200 microplate reader (Tecan) equipped with 360 nm excitation and […]
# The observed rate constant for inhibition, kobs, at each concentration was determined fro m the slope of a semi-logarithmic plot of inhibition versus […]
# equation, k obs = k 2[I]/(K i+[I]), to obtain values for Ki and k2. The k2/Ki ratio represents the second -order rate constant for the reaction of the inhibitor with the target. S7)
# [2] = tested on: human myeloma Amo-1 cells; experiment: Anti-proliferation activity against Amo-1 cells (CCK-8); format: cell-based
# Method: 5) Evaluation of anti -proliferation activity against Amo- 1cells
# Cell proliferation assays were performed using the Cell Counting Kit-8 (CCK-8) (Dojindo, CK04) according to the manufacturer’s protocol. In brief, Amo- 1 cells were cultured in RPMI1640 medium containing 10% FBS and 1% penicillin -strepto myc in.
# After culturing for 24 h at 37 °C under atmosphere of 5% CO2, the cells were treated with a solution of the compound in DMSO (1 µL) at 37 °C for 72 h. A solution of the CCK-8 (10 µL) was then added to each well and the cells were incubated at 37 °C for 3 h. The absorbance at 450 nm was measured using an Infinite M200 PRO multimode microplate reader (Tecan). The data points were calculated from the average (±standard deviation) of three assays […]
# (IC 50) were calculated from curves constructed by plotting cell proliferation (%) versus the log of compound […]
# (1 picture or pasted object on this page, not shown here)
# [3] = from fit kobs = k2[I]/(Ki + [I])
# [4] = AMO1, Amo-1 cells, 72 h, CCK-8, read-out: IC50 (cell proliferation)
# [5] = second-order rate constant, k2/Ki ratio
Structure (SMILES),"k 2 [1, 3]",K′i (apparent β5 subunit inhibitory activity) [1],"Ki [1, 3]","kinact/KI [1, 5]",other results
"CC(C)[C@H](NC(=O)N[C@H](C(=O)N[C@H]1C/C=C/CNC(=O)/C=C/[C@H](C(C)C)NC1=O)C(C)C)C(=O)O [Isosyringolin A (3), Isosyringolin A]",0.00339 s⁻¹,590 nM,–,–,kinact/KI [1]: 166 M⁻¹ s⁻¹
"CC(C)[C@H](NC(=O)N[C@H](C(=O)N[C@H]1/C=C/CCNC(=O)/C=C/[C@H](C(C)C)NC1=O)C(C)C)C(=O)O [Syringolin A (1), Syringolin A, reference compound]",0.00391 s⁻¹,170 nM,–,–,k 2 ([1]; as printed in text in s^–1): 3.91 × 10^–3 s^–1; kinact/KI [1]: 1770 M⁻¹ s⁻¹
CCCCCCCCCC(=O)N[C@@H](Cc1ccccc1)C(=O)N[C@H]1/C=C/CCNC(=O)/C=C/[C@H](C(C)C)NC1=O [analogue 4],–,–,–,–,"IC50 ([2]; AMO1, 72 h, read-out: IC50 (cell proliferation)): 4.33 ± 1.6 nM"
CCCCCCCCCC(=O)N[C@@H](Cc1ccccc1)C(=O)N[C@H]1/C=C/CNC(=O)/C=C/[C@H](C(C)C)NC1=O [analogue 8],0.00551 s⁻¹,20.6 nM,432 nM,12800 M⁻¹ s⁻¹,"IC50 [2, 4]: 26.3 ± 9.3 nM; K i, decrease in affinity relative to 4 ([1]; decrease relative to 4): 6.3 fold; k 2 relative to 4 ([1]; greater than that of the 12-membered 4): 1.29 fold"
CCCCCCCCCC(=O)N[C@@H](Cc1ccccc1)C(=O)N[C@H]1CCCNC(=O)/C=C/[C@H](C(C)C)NC1=O [analogue 9],0.00365 s⁻¹,48.2 nM,547 nM,6670 M⁻¹ s⁻¹,–
CCCCCCCCCC(=O)N[C@@H](Cc1ccccc1)C(=O)N[C@H]1CC/C=C/CNC(=O)/C=C/[C@H](C(C)C)NC1=O [analogue 10],0.00134 s⁻¹,79.2 nM,527 nM,2550 M⁻¹ s⁻¹,–
CCCCCCCCCC(=O)N[C@@H](Cc1ccccc1)C(=O)N[C@H]1C/C=C/CCNC(=O)/C=C/[C@H](C(C)C)NC1=O [analogue 11],0.000875 s⁻¹,320 nM,1230 nM,713 M⁻¹ s⁻¹,–

# Second part, led by results:
"k 2 [1, 3]",K′i (apparent β5 subunit inhibitory activity) [1],"Ki [1, 3]","kinact/KI [1, 5]",Structure (SMILES),other results
0.00203 s⁻¹,402 nM,9090 nM,224 M⁻¹ s⁻¹,CCCCCCCCCC(=O)N[C@@H](Cc1ccccc1)C(=O)N[C@H]1CCCCCNC(=O)/C=C/[C@H](C(C)C)NC1=O [analogue 12],–
–,>1000 nM,–,–,C=CC[C@H](NC(=O)[C@H](Cc1ccccc1)NC(=O)CCCCCCCCC)C(=O)N[C@H](/C=C/C(=O)NC)C(C)C [analogue 13],inhibitory activity ([1]; β5 subunit): no inhibitory activity
0.00428 s⁻¹,0.77 nM,42.2 nM,101000 M⁻¹ s⁻¹,CCCCCCCCCC(=O)N[C@@H](Cc1ccc(-c2ccccc2)cc1)C(=O)N[C@H]1/C=C/CNC(=O)/C=C/[C@H](C(C)C)NC1=O [analogue 14],"IC50 [2, 4]: 12.1 nM; k assoc (k2/Ki) [1, 5]: 101422 s^–1 M^–1"
